Numbers after ± are expanded uncertainties.

The mass density is the mass of a sample divided by its volume. In general, refractive index refers to a measure of how strongly the sample bends light.

For data set [1] the following is noted: Liquid; for mass density: 293.15 K, 101.33 kPa, Vibrating tube method; for Normal boiling temperature: Closed cell (Static) method.
A short description of data set [2]: refractive index (Na D-line) (dimensionless). The following applies: 298.15 K; 101.33 kPa; Liquid; Standard Abbe refractometry.

`CC(=O)O` [acetic acid]: in data set [1], the mass density was found to be 1044.3 ± 0.96 kg/m3 and the Normal boiling temperature turned out to be 117.1 ± 1.1 °C. The refractive index in data set [2] worked out at 1.37104 ± 0.00052.
The like results for `CCCCCCC(=O)OCC` [ethyl heptanoate] were, in that order, 881.3 ± 0.74 kg/m3, 187.2 ± 1.1 °C and 1.41123 ± 0.00052.
The like results for `O=CO` [formic acid] were, in that order, 1218.5 ± 1.4 kg/m3, 101.1 ± 1.1 °C and 1.3721 ± 0.00052.
The like results for `O` [water] were, in that order, 999.9 ± 0.24 kg/m3, 100.1 ± 1 °C and 1.33244 ± 0.00033.

These data come from the NIST ThermoML archive (doi:10.1016/j.fluid.2013.07.015).
